Source: ChEMBL document CHEMBL5316277, “Discovery of Spiro[pyrrolidine-3,3'-oxindole] LXRβ Agonists for the Treatment of Osteoporosis” (J Med Chem, 2023)
Active and inactive are the calls of the source. The rule behind the calls is not given here.

What was measured:
BMMC [1] = experiment: Anti-osteoporosis activity in C57BL/6 mouse bone marrow macrophage cells assessed as inhibition of RANKL-induced osteoclastogenesis measured after 5 days in presence of MCSF by TRAP staining based assay; type: functional, cell-based; conditions: C57BL/6, BMMC, 120 h
BMMC [2] = experiment: Anti-osteoporosis activity in C57BL/6 mouse bone marrow macrophage cells assessed as inhibition of RANKL-induced osteoclastogenesis at more than 10 uM measured after 5 days in presence of MCSF by TRAP staining based assay; type: functional, cell-based; conditions: time 5.0 day
BMMC [3] = experiment: Cytotoxicity against C57BL/6 mouse bone marrow macrophage cells assessed as reduction in cell viability up to 10 uM incubated for 72 hrs by MTT assay; type: toxicity, cell-based

SMILES	IC50 (BMMC [1]) [nM]	other results
COCc1ccc(-c2cc(F)cc([C@H]3N(C(=O)OC(C)(C)C)CC[C@]34C(=O)N(C)c3ccccc34)c2)cc1S(C)(=O)=O	220	–
COC(=O)c1cn(C)c2cc(-c3cc(F)cc([C@H]4N(C(=O)OC(C)(C)C)CC[C@]45C(=O)Nc4ccccc45)c3)ccc12	1560	–
COC(=O)Cc1ccc(-c2cc(F)cc([C@H]3N(C(=O)OC(C)(C)C)CC[C@]34C(=O)Nc3ccccc34)c2)cc1Cl	3400	–
CC(C)(C)OC(=O)N1CC[C@]2(C(=O)Nc3ccccc32)[C@H]1c1cc(F)cc(-c2ccc(C(=O)O)c(S(C)(=O)=O)c2)c1	–	inhibition (BMMC [2]): inactive
COC(=O)c1c[nH]c2cc(-c3cc(F)cc([C@H]4N(C(=O)OC(C)(C)C)CC[C@]45C(=O)Nc4ccccc45)c3)ccc12	2890	–
COC(=O)c1ccc(-c2cc(F)cc([C@H]3N(S(=O)(=O)C(C)C)CC[C@]34C(=O)N(C)c3ccccc34)c2)cc1S(C)(=O)=O	200	–
COC(=O)Cn1ccc2cc(-c3cc(F)cc([C@H]4N(C(=O)OC(C)(C)C)CC[C@]45C(=O)Nc4ccccc45)c3)ccc21	3400	–
COC(=O)c1ccc(-c2cc(F)cc([C@H]3N(C(=O)OC(C)(C)C)CC[C@]34C(=O)Nc3ccccc34)c2)cc1Cl	8780	–
COC(=O)c1ccc(-c2cccc([C@H]3N(C(=O)OC(C)(C)C)CC[C@]34C(=O)N(C)c3ccccc34)c2)cc1S(C)(=O)=O	200	–
CC(C)(C)CC(=O)N1CC[C@]2(C(=O)Nc3ccccc32)[C@H]1c1cccc(-c2ccc(CO)c(S(C)(=O)=O)c2)c1	360	–
CC(C)(C)OC(=O)N1CC[C@]2(C(=O)Nc3ccccc32)[C@H]1c1cccc(-c2ccc(CO)c(S(C)(=O)=O)c2)c1	200	–
COC(=O)c1ccc(-c2cc(F)cc([C@H]3N(C(=O)OC(C)(C)C)CC[C@]34C(=O)N(C)c3ccccc34)c2)cc1S(C)(=O)=O	2170	–
CC(C)(C)OC(=O)N1CC[C@]2(C(=O)Nc3ccccc32)[C@H]1c1cc(F)cc(-c2ccc(CC(=O)O)c(Cl)c2)c1	–	inhibition (BMMC [2]): inactive
COC(=O)c1c(F)cc(-c2cc(F)cc([C@H]3N(C(=O)OC(C)(C)C)CC[C@]34C(=O)Nc3ccccc34)c2)cc1F	4140	–
COCc1ccc(-c2cc(F)cc([C@H]3N(S(=O)(=O)C(C)C)CC[C@]34C(=O)N(C)c3ccccc34)c2)cc1S(C)(=O)=O	200	–
COC(=O)c1ccc(-c2cc(F)cc([C@H]3N(C(=O)OC(C)(C)C)CC[C@]34C(=O)Nc3ccccc34)c2)cc1S(C)(=O)=O	–	Activity (BMMC [3]): Non-Toxic
